Numbers after ± are expanded uncertainties.
Conditions: 101.33 kPa, Liquid

SMILES	mass density (283.15 K) [kg/m3]	speed of sound (283.15 K) [m/s]	mass density (298.15 K) [kg/m3]	speed of sound (298.15 K) [m/s]	mass density (303.15 K) [kg/m3]	speed of sound (303.15 K) [m/s]	mass density (313.15 K) [kg/m3]	speed of sound (313.15 K) [m/s]	mass density (323.15 K) [kg/m3]	speed of sound (323.15 K) [m/s]
CC(C)CO [2-methyl-1-propanol]	809.36 ± 0.72	1238.7 ± 5	798.03 ± 0.74	1188 ± 4.9	794.17 ± 0.75	1174.3 ± 4.8	786.1 ± 0.76	1138 ± 4.7	777.85 ± 0.77	1108.2 ± 4.6
CC(C)(C)O [2-methylpropan-2-ol]	–	–	–	–	775.75 ± 0.78	1101.9 ± 4.6	765.05 ± 0.8	1056.4 ± 4.5	754.12 ± 0.81	1015.9 ± 4.4
